Data from patent US12428406B2 (PMV Pharmaceuticals, Inc., priority 2019, dated 2025).

Target: T1, p53 Y220C (Homo sapiens, UniProt P04637, Y220C)
T1 construct: The recombinant protein was a truncation mutant containing only amino acids 94-312 of p53; made in house; host or cells: E. coli
Assay: In vitro DNA binding activity assay (HTRF / TR-FRET): stabilization of p53 Y220C and increase of its DNA binding activity
Assay type: biochemical
Details: recombinant His-tagged p53 Y220C DNA binding domain (aa 94-312), biotin-labeled consensus DNA, incubated at 27° C. or 29° C. for 60 min
In short: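 E. coli His-p53 Y220C + biotin consensus DNA; anti-His-APC/SA-Eu TR-FRET. SC150 vs no-compound.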

T1 sequence (P04637 94-312, change not shown): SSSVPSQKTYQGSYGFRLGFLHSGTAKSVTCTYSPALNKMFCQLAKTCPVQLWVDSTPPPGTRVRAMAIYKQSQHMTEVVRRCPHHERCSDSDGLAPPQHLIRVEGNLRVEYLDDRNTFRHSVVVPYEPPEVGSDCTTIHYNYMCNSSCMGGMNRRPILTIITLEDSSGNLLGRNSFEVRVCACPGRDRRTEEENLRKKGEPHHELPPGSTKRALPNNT

SC150 (concentration of the compound required to increase the DNA binding activity by 50%) | SMILES
+ (+ = 0 μM ≤ SC150 < 0.05 μM) | COC[C@H](O)CN1CC[C@@H](Nc2cccc3c2cc(C#CCNc2ccc(S(N)(=O)=O)cc2OC)n3CC(F)(F)F)[C@@H](F)C1 [Compound 869A, 4-{[3-(4-{[(3S,4R)-3-fluoro-1-[(2R)-2-hydroxy-3-methoxypropyl]piperidin-4-yl]amino}-1-(2,2,2-trifluoroethyl)-1H-indol-2-yl)prop-2-yn-1-yl]amino}-3-methoxybenzene-1-sulfonamide]
+ (+ = 0 μM ≤ SC150 < 0.05 μM) | COc1cc(S(C)(=O)=O)ccc1NCC#Cc1cc2c(N[C@@H]3CCC4(C[C@@H]3F)OCCO4)cccc2n1CC(F)(F)F [Compound 870A, N-[(7S,8R)-7-fluoro-1,4-dioxaspiro[4.5]decan-8-yl]-2-{3-[(4-methanesulfonyl-2-methoxyphenyl)amino]prop-1-yn-1-yl}-1-(2,2,2-trifluoroethyl)-1H-indol-4-amine]
+ (+ = 0 μM ≤ SC150 < 0.05 μM) | COC[C@H](O)CN1CC[C@@H](Nc2cccc3c2cc(C#CCNc2ccc(C(=O)OC)cc2OC)n3CC(F)(F)F)[C@@H](F)C1 [Compound 878A]
+ (+ = 0 μM ≤ SC150 < 0.05 μM) | COC[C@H](O)CN1CC[C@H](Nc2cccc3c2cc(C#CCNc2ccc(C(=O)OC)cc2OC)n3CC(F)(F)F)[C@H](F)C1 [Compound 879A]
++++ (++++ = 0.2 μM ≤ SC150 < 1 μM) | CCCn1c(C#CCNc2c(F)cc(S(C)(=O)=O)cc2OC)cc2c(N[C@H]3CCN(C[C@@H](O)COC)C[C@H]3F)cccc21 [Compound 880A]
+ (+ = 0 μM ≤ SC150 < 0.05 μM) | COc1cc(S(N)(=O)=O)ccc1NCC#Cc1cc2c(N[C@@H]3CCN(C[C@@H](O)CO)C[C@@H]3F)cccc2n1CC(F)(F)F [Compound 882A]
+ (+ = 0 μM ≤ SC150 < 0.05 μM) | COc1cc(S(N)(=O)=O)ccc1NCC#Cc1cc2c(N[C@H]3CCN(C[C@H](COC(C)=O)OC(C)=O)C[C@H]3F)cccc2n1CC(F)(F)F [Compound 888A, (2R)-1-(acetyloxy)-3-[(3R,4S)-3-fluoro-4-[(2-{3-[(2-methoxy-4-sulfamoylphenyl)amino]prop-1-yn-1-yl}-1-(2,2,2-trifluoroethyl)-1H-indol-4-yl)amino]piperidin-1-yl]propan-2-yl acetate]
+ (+ = 0 μM ≤ SC150 < 0.05 μM) | COc1cc(S(N)(=O)=O)ccc1NCC#Cc1cc2c(N[C@@H]3CCN(C[C@H](COC(C)=O)OC(C)=O)C[C@@H]3F)cccc2n1CC(F)(F)F [Compound 890A, (2R)-1-(acetyloxy)-3-[(3S,4R)-3-fluoro-4-[(2-{3-[(2-methoxy-4-sulfamoylphenyl)amino]prop-1-yn-1-yl}-1-(2,2,2-trifluoroethyl)-1H-indol-4-yl)amino]piperidin-1-yl]propan-2-yl acetate]
+ (+ = 0 μM ≤ SC150 < 0.05 μM) | COc1cc(S(C)(=O)=O)ccc1NCC#Cc1cc2c(N[C@H]3CCN(C(=O)CN)C[C@H]3F)cccc2n1CC(F)(F)F [Compound 892A]
+ (+ = 0 μM ≤ SC150 < 0.05 μM) | COc1cc(S(C)(=O)=O)ccc1NCC#Cc1cc2c(N[C@@H]3CCN(C(=O)CN)C[C@@H]3F)cccc2n1CC(F)(F)F [Compound 893A]
+ (+ = 0 μM ≤ SC150 < 0.05 μM) | COc1cc(S(C)(=O)=O)ccc1NCC#Cc1cc2c(N[C@H]3CCN(C[C@@H](C)O)C[C@H]3F)cccc2n1CC(F)(F)F [Compound 894A, 1-[(3R,4S)-3-fluoro-4-[(2-{3-[(4-methanesulfonyl-2-methoxyphenyl)amino]prop-1-yn-1-yl}-1-(2,2,2-trifluoroethyl)-1H-indol-4-yl)amino]piperidin-1-yl]propan-2-ol]
+++ (+++ = 0.1 μM ≤ SC150 < 0.2 μM) | CN1CC[C@@H](Nc2cccc3c2cc(C#CCO)n3CC(F)(F)F)[C@@H](F)C1 [Compound 895A, 3-(4-(((3S,4R)-3-fluoro-1-methylpiperidin-4-yl)amino)-1-(2,2,2-trifluoroethyl)-1H-indol-2-yl)prop-2-yn-1-ol]
+ (+ = 0 μM ≤ SC150 < 0.05 μM) | COc1cc(C(=O)NCC(=O)O)ccc1NCC#Cc1cc2c(N[C@@H]3CCN(C)C[C@@H]3F)cccc2n1CC(F)(F)F [Compound 896A, (4-((3-(4-(((3S,4R)-3-fluoro-1-methylpiperidin-4-yl)amino)-1-(2,2,2-trifluoroethyl)-1H-indol-2-yl)prop-2-yn-1-yl)amino)-3-methoxybenzoyl)glycine]
+ (+ = 0 μM ≤ SC150 < 0.05 μM) | COCCN1CC[C@@H](Nc2cccc3c2cc(C#CCNc2ccc(C(=O)OC)cc2OC)n3CC(F)(F)F)[C@@H](F)C1 [Compound 897A]
+ (+ = 0 μM ≤ SC150 < 0.05 μM) | COCCN1CC[C@@H](Nc2cccc3c2cc(C#CCNc2ccc(C(=O)O)cc2OC)n3CC(F)(F)F)[C@@H](F)C1 [Compound 898A]
+ (+ = 0 μM ≤ SC150 < 0.05 μM) | COC(=O)c1ccc(NCC#Cc2cc3c(N[C@@H]4CCN(CCO)C[C@@H]4F)cccc3n2CC(F)(F)F)c(OC)c1 [Compound 899A, methyl 4-{[3-(4-{[(3S,4R)-3-fluoro-1-(2-hydroxyethyl)piperidin-4-yl]amino}-1-(2,2,2-trifluoroethyl)-1H-indol-2-yl)prop-2-yn-1-yl]amino}-3-methoxybenzoate]
+ (+ = 0 μM ≤ SC150 < 0.05 μM) | COC(=O)c1ccc(NCC#Cc2cc3c(N[C@@H]4CCN(CC(N)=O)C[C@@H]4F)cccc3n2CC(F)(F)F)c(OC)c1 [Compound 901A, methyl 4-{[3-(4-{[(3S,4R)-1-(carbamoylmethyl)-3-fluoropiperidin-4-yl]amino}-1-(2,2,2-trifluoroethyl)-1H-indol-2-yl)prop-2-yn-1-yl]amino}-3-methoxybenzoate]
+ (+ = 0 μM ≤ SC150 < 0.05 μM) | COCCN1CC[C@H](Nc2cccc3c2cc(C#CCNc2ccc(C(=O)OC)cc2OC)n3CC(F)(F)F)[C@H](F)C1 [Compound 902A]
+ (+ = 0 μM ≤ SC150 < 0.05 μM) | COC(=O)c1ccc(NCC#Cc2cc3c(N[C@H]4CCN(CCO)C[C@H]4F)cccc3n2CC(F)(F)F)c(OC)c1 [Compound 903A, methyl 4-{[3-(4-{[(3R,4S)-3-fluoro-1-(2-hydroxyethyl)piperidin-4-yl]amino}-1-(2,2,2-trifluoroethyl)-1H-indol-2-yl)prop-2-yn-1-yl]amino}-3-methoxybenzoate]
+ (+ = 0 μM ≤ SC150 < 0.05 μM) | COCCN1CC[C@H](Nc2cccc3c2cc(C#CCNc2ccc(C(=O)O)cc2OC)n3CC(F)(F)F)[C@H](F)C1 [Compound 904A]
+ (+ = 0 μM ≤ SC150 < 0.05 μM) | COC(=O)c1ccc(NCC#Cc2cc3c(N[C@H]4CCN(C[C@@H](C)O)C[C@H]4F)cccc3n2CC(F)(F)F)c(OC)c1 [Compound 905A, methyl 4-{[3-(4-{[(3R,4S)-3-fluoro-1-(2-hydroxypropyl)piperidin-4-yl]amino}-1-(2,2,2-trifluoroethyl)-1H-indol-2-yl)prop-2-yn-1-yl]amino}-3-methoxybenzoate]
+ (+ = 0 μM ≤ SC150 < 0.05 μM) | COc1cc(C(=O)N2CC3(COC3)C2)ccc1NCC#Cc1cc2c(N[C@@H]3CCN(C)C[C@@H]3F)cccc2n1CC(F)(F)F [Compound 906A, N-[(3S,4R)-3-fluoro-1-methylpiperidin-4-yl]-2-{3-[(2-methoxy-4-{2-oxa-6-azaspiro[3.3]heptane-6-carbonyl}phenyl)amino]prop-1-yn-1-yl}-1-(2,2,2-trifluoroethyl)-1H-indol-4-amine]
+ (+ = 0 μM ≤ SC150 < 0.05 μM) | COc1cc(C(=O)N2CC3(CCOCC3)C2)ccc1NCC#Cc1cc2c(N[C@@H]3CCN(C)C[C@@H]3F)cccc2n1CC(F)(F)F [Compound 907A, N-[(3S,4R)-3-fluoro-1-methylpiperidin-4-yl]-2-{3-[(2-methoxy-4-{7-oxa-2-azaspiro[3.5]nonane-2-carbonyl}phenyl)amino]prop-1-yn-1-yl}-1-(2,2,2-trifluoroethyl)-1H-indol-4-amine]
+ (+ = 0 μM ≤ SC150 < 0.05 μM) | COc1cc(C(=O)O)ccc1NCC#Cc1cc2c(N[C@@H]3CCN(CCO)C[C@@H]3F)cccc2n1CC(F)(F)F [Compound 908A, 4-{[3-(4-{[(3S,4R)-3-fluoro-1-(2-hydroxyethyl)piperidin-4-yl]amino}-1-(2,2,2-trifluoroethyl)-1H-indol-2-yl)prop-2-yn-1-yl]amino}-3-methoxybenzoic acid]
+ (+ = 0 μM ≤ SC150 < 0.05 μM) | COc1cc(C(=O)N2CCOCC2)ccc1NCC#Cc1cc2c(N[C@@H]3CCN(C)C[C@@H]3F)cccc2n1CC(F)(F)F [Compound 909A]
+ (+ = 0 μM ≤ SC150 < 0.05 μM) | COc1cc(C(=O)O)ccc1NCC#Cc1cc2c(N[C@H]3CCN(CCO)C[C@H]3F)cccc2n1CC(F)(F)F [Compound 912A, 4-{[3-(4-{[(3R,4S)-3-fluoro-1-(2-hydroxyethyl)piperidin-4-yl]amino}-1-(2,2,2-trifluoroethyl)-1H-indol-2-yl)prop-2-yn-1-yl]amino}-3-methoxybenzoic acid]
